As usually defined, the IC50 is the concentration that inhibits the measured activity by half. In general, EC50 refers to the concentration needed to bring the measured effect to its halfway point.

One assay concerns the target T1, TR-α (Homo sapiens, UniProt P10827).
T1 sequence (P10827 1-410 isoform P10827-2): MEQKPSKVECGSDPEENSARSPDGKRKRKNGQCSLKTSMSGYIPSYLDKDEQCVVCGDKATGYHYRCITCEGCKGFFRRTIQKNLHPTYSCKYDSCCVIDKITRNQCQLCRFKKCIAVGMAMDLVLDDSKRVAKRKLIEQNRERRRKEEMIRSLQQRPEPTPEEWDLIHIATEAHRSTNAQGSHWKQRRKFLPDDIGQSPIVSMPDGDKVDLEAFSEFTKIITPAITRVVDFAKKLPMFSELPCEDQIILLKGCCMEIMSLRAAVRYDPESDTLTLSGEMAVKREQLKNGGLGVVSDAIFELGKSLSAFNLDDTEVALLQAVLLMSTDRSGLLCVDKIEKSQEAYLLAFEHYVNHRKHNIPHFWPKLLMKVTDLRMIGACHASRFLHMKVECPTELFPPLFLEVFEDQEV
Description: Binding to TR isoform TR-α. The text has this: Assays for determining selective binding to the TR-α or TR-β LBD can include reporter assays, as described herein.

The target in a further assay is T2, TR-β (Homo sapiens, UniProt P10828).
T2 sequence (P10828 1-461): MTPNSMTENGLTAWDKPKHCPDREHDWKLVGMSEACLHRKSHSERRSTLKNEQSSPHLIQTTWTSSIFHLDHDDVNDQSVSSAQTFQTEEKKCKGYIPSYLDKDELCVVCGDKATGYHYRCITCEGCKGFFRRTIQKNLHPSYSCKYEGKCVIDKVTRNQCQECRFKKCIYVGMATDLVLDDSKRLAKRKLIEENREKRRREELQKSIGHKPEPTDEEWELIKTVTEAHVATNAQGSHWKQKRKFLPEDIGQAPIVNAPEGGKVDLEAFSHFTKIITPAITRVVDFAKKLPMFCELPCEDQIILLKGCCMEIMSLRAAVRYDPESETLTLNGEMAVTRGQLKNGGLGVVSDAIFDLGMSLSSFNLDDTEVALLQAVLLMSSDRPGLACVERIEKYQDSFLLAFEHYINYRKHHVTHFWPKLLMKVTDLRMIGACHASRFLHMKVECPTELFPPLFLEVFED
Description: Binding to TR isoform TR-β. The procedure: 3,5-dibromo-4-(3′,5′-diisopropyl-4′-hydroxyphenoxy)Benzoic Acid is a TR-α Selective Synthetic Ligand. [drawing 4] 3,5-dibromo-4-(3′,5′-diisopropyl-4′-hydroxyphenoxy)benzoic acid (Compound 11), the structure of which is drawn above, is assayed for binding to the two different isoforms of the TR, TR-α and TR-β. […] Assays for determining selective binding to the TR-α or TR-β LBD can include reporter assays, as described herein. See also Hollenberg, et al., J. Biol. Chem., (1995) 270(24):14274-14280.

The test system of assay [1] is thyroid hormone receptors (TRs). Description: CAT reporter gene activation in cultured cells. The format is cell-based. The conditions noted are these: U-937. The procedure: To test TR activation of transcription in a cellular environment, TR ligands are assayed for their ability to activate a reporter gene, chloramphenicol transferase (“CAT”), which has a TR DNA binding sequence operatively linked to it. Either GC or […] cells (available from the ATCC) can be used, respectively). In such assays, a TR ligand crosses the cell membrane, binds to the TR, and activates the TR, which in turn activates gene transcription of the CAT by binding the TR DNA binding region upstream of the CAT gene. The effective concentration for half maximal gene activation (EC50) is determined by assaying CAT gene activation at various concentrations as described herein and in the literature.
After electroporation, cells are pooled in growth medium (RPMI with 10% charcoal-treated, hormone stripped, newborn bovine serum), plated in 6-well dishes and treated with either ethanol or hormone. CAT activity is determined 24 hours later as described D. C. Leitman, R. C.

In a further assay the test system is TR binding to RIP-140. The assay can be described thus: RIP-140 coactivation assay (35S-RIP-140 binding to liganded TR). The format is biochemical. Details: key: +: RIP-140 Binding; −: RIP-140 Binding. The procedure: To test the ability of TR ligands to activate the binding of TR to the nuclear activation protein RIP-140 (a nuclear protein that can bind to nuclear receptors, such as the estrogen receptor), a TR ligand is liganded to TR and then incubated with RIP-140 as described in V. Cavailles, et al., EMBO J., 14(15):3741-3751 (1995), which is incorporated by reference herein. In this assay, 35S-RIP-140 protein binds to liganded TR but not unliganded TR.

Assay [2] relates to TR. The conditions noted are these: cited from earlier work.
For another assay, the target named is T3, human TR-β LBD (Homo sapiens, UniProt P10828).
T3 sequence (P10828 217-461 limits assumed): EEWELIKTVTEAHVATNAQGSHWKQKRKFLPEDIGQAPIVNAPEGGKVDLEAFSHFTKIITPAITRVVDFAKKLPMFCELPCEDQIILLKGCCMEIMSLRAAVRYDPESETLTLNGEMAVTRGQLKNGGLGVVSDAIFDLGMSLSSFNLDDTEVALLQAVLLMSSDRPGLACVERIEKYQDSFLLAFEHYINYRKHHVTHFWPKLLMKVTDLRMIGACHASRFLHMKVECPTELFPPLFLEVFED
The assay can be described thus: Competition for [125I]T3 binding, native TR-β. The conditions noted are these: read-out: Binding Affinity, Native TR-β. As to the method:
Assays are performed in duplicate.
The following assays residues involved in selective binding among TR isoforms.

Another assay deals with T4, human TR-α LBD (Homo sapiens, UniProt P10827).
T4 sequence (P10827 163-410 isoform P10827-2 limits assumed): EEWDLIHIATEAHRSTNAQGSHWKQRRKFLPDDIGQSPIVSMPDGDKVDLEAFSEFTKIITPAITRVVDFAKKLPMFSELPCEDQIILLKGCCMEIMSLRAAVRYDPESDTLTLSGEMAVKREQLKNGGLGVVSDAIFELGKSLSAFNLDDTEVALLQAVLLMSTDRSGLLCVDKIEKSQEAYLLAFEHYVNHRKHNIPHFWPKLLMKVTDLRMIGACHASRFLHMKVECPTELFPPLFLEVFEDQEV
Description: Competition for [125I]T3 binding, native TR-α. The conditions noted are these: read-out: Binding Affinity, Native TR-α; competition with 1 nM [125I]T3.

The target of the next assay is thyroid receptor (TR). The assay can be described thus: Receptor binding assay with TR from rat liver nuclei and [125I]T3. Conditions: TR from rat liver nuclei, 1 nM [125I]T3, overnight at 4° C.; read-out: App.Kd. As to the method:
Baxter, and […]. […] The apparent Kd's are calculated using the method described by […]

In assay [3] the test system is TR. Description: Receptor binding affinity stated in the structure discussion.
[4] abbreviates: half maximal CAT gene activation, GC or U937 cells, read-out: EC50.

Like-named read-outs stand apart in the source and are kept apart here.

`CC(C)c1cc(Oc2c(Br)cc(C(=O)O)cc2Br)cc(C(C)C)c1O` [Compound 11, 3,5-dibromo-4-(3′,5′-diisopropyl-4′-hydroxyphenoxy)benzoic acid]: the IC50 at TR-α came out at 1600 nM; at TR-β it was 910 nM.
With `N[C@@H](Cc1cc(I)c(Oc2ccc(O)c(I)c2)c(I)c1)C(=O)O` [Compound T3, 3,5,3′-triiodothyronine, reference compound], in assay [1], a half-maximal response (EC50) required 0.1 nM. Also, in the assay on TR binding to RIP-140, the “Coactivation Assay RIP-140” value is reported as “+”.
In the case of `N[C@@H](Cc1cc(I)c(Oc2cc(I)c(O)c(I)c2)c(I)c1)C(=O)O` [Compound T4, 3,5,3′,5′-tetraiodo-L-thyronine, reference compound], the EC50 in assay [1] (setting [4]) amounted to 1 nM. In the assay on TR [2], the “affinity for the receptor as % of the affinity of T3” value is 2%. Besides, the “Coactivation Assay RIP-140” value in the assay with TR binding to RIP-140 is given as “+”.
In the case of `Cc1cc(C[C@H](N)C(=O)O)cc(C)c1Oc1ccc(O)c(C(C)C)c1` [Dimit, 3,5-dimethyl-3′-isopropylthyronine], the results for the Kd at human TR-β LBD and on human TR-α LBD were 8 nM and 6 nM, respectively.
For the compound `CC(C)c1cc(Oc2c(Br)cc(C[C@H](N)C(=O)O)cc2Br)ccc1O` [IpBr2, 3,5-dibromo-3′-isopropylthyronine], the Kd on human TR-α LBD amounted to 0.017 nM.
As for `O=C(N[C@@H](Cc1cc(I)c(Oc2ccc(O)c(I)c2)c(I)c1)C(=O)O)C(c1ccccc1)c1ccccc1` [TS1], in assay [1] (setting [4]), the EC50 is 100 nM. Further, the “Coactivation Assay RIP-140” value with TR binding to RIP-140 is on record as “+”. The Kd at thyroid receptor (TR) was found to be 4 nM.
Turning to `CCCCCCCCCCCCCCCCC(=O)N[C@@H](Cc1cc(I)c(Oc2ccc(O)c(I)c2)c(I)c1)C(=O)O` [TS2], at thyroid receptor (TR), the Kd was found to be 1400 nM.
Consider `O=C(N[C@@H](Cc1cc(I)c(Oc2ccc(O)c(I)c2)c(I)c1)C(=O)O)OCC1c2ccccc2-c2ccccc21` [TS3], for which the EC50 in [1] (setting [4]) worked out at 10 nM. Besides, the “Coactivation Assay RIP-140” value with TR binding to RIP-140 is given as “+”. Also, the Kd at thyroid receptor (TR) worked out at 4 nM.
For the compound `CC(C)(C)OC(=O)N[C@@H](Cc1cc(I)c(Oc2ccc(O)c(I)c2)c(I)c1)C(=O)O` [TS4], the “Coactivation Assay RIP-140” value in the assay on TR binding to RIP-140 is listed as “+”. For the same compound, the Kd at thyroid receptor (TR) is 8 nM.
As for `CC(C)(C)OC(=O)NC(Cc1cc(I)c(Oc2ccc(O)cc2)c(I)c1)C(=O)O` (stereo not shown) [TS5], the EC50 in assay [1] (setting [4]) worked out at 1000 nM. Further, the “Coactivation Assay RIP-140” value in the assay on TR binding to RIP-140 is recorded as “+”. The Kd on thyroid receptor (TR) is 220 nM.
With `CC(C)c1cc(Oc2c(I)cc(CC(N)C(=O)O)cc2I)ccc1O` (stereo not shown) [TS9, reference compound], in the assay with TR binding to RIP-140, the “Coactivation Assay RIP-140” value is listed as “+”.
As to `O=C(O)Cc1cc(I)c(Oc2ccc(O)c(I)c2)c(I)c1` [Triac, 3,5,3′-triiodothyroacetic acid], the “binding affinity compared with T3” value in the assay on TR [2] is “equal to that of T3”. In the assay on TR [3], the “affinity for the alpha versus beta isoforms” value was “equal affinity”.

The values above are taken from patent US20070027215A1, “Nuclear receptor ligands and ligand binding domains” (The Regents of the University of California, priority 1995, published 2007).
